Read-outs that look alike come from different tables or passages of the source. Where no end group is shown, it is not given here.
Columns and labels:
Type in all cases: cell-based
[1] = system: Corynebacterium glutamicum (Cg, ATCC 13032)
Experimental: (§1) The peptides were screened for antibacterial activity against two strains of Gram-positive and two strains of Gram-negative bacteria; Corynebacterium glutamicum (Cg, ATCC 13032), Staphylococcus aureus (Sa, ATCC 9144), Pseudomonas aeruginosa (Pa, ATCC 27853) and Escherichia coli (Ec, ATCC 25922).
(§2) Cultures stored at −80° C. in glycerol were transferred to Müller-Hinton plates (MH, Difco, Lawrence, Kans., USA) and incubated for 24 h at 35° C. A few colonies of each bacterial strain were transferred to 5 ml liquid MH medium and left shaking at room temperature overnight at 600 rpm. Cultures of actively growing bacteria (20 μl) were inoculated in 5 ml MH medium and left shaking for 2 h at room temperature. The antibacterial assays were performed as previously described by Sperstad, S. V., et al. ((2009) Mol. Immunol. 46, 2604-2612) with the following exception: bacterial cultures were diluted with medium to 2.5-3×10^4 bacteria/ml concentrations. An aliquot of 50 μl (1250-1500 bacterial cells) was added to each well in 96-well Nunclon™ microtiter plates (Nagle Nunc Int., Denmark) preloaded with peptide solution (50 μl).
(§3) The microtiter plates were incubated for 24 h at 35° C. with optical density recorded every hour using an Envision 2103 multilabel reader, controlled by a Wallac Envision manager (PerkinElmer, Conn., USA). Minimum inhibitory concentration (MIC) was defined as a sample showing complete inhibition (as measured by optical density at 595 nm) compared to the negative (growth) controls, consisting of bacteria and water. Oxytetracycline (20 μM) served as a positive (inhibition) control.
(§4) The synthetic peptides were tested for antibacterial activity in concentrations ranging from 200 to 0.1 μM in two-fold dilutions. All tests were performed in triplicates.

[2] = system: Escherichia coli (Ec, ATCC 25922)
Experimental: as §1, §2, §3, §4

[3] = system: Pseudomonas aeruginosa (Pa, ATCC 27853)
Experimental: as §1, §2, §3, §4

[4] = system: Staphylococcus aureus (Sa, ATCC 9144)
Experimental: as §1, §2, §3, §4

human red blood cells = assay: Haemolytic assay; details: human red blood cells, one hour at 37° C.; for Haemolysis (%) 25 μM: peptide 25 μM; for Haemolysis (%) 200 μM: peptide 200 μM
Experimental: Selected synthesised peptide analogues were also screened for haemolytic activity using human red blood cells as described previously (Sperstad, S. V., et al. (2009) Dev. Comp. Immunol. 33, 583-591). The assay was performed on 96-well U-shaped microtiter plates (Nagle Nunc) with 50 μl peptide sample, 40 μl phosphate-buffered saline (PBS) and 10 μl red blood cells. After one hour of incubation at 37° C. in a shaker, the plate was centrifuged at 200 g for 5 min and the supernatants (60 μl) were carefully transferred to a new flat-bottomed polycarbonate microtiter plate (Nagle Nunc) and the release of haemoglobin (absorbance at 550 nm) was measured on a Synergy H1 multimode reader (BioTek, Vt., USA). Cell suspension added 0.05% Triton X-100 (Sigma-Aldrich, Mo., USA) in PBS served as positive (100% haemolysis) control and cell suspension added PBS served as negative (0% haemolysis, blank) control. The percent haemolysis was calculated using the formula [(Asample-Abaseline)/(Atriton-Abaseline)]×100. The cytotoxic peptide melittin (Sigma-Aldrich) was used as a positive control peptide and for comparison. The experiment was performed in triplicates with peptide concentrations ranging from 200 μM to 1.56 μM in two-fold dilutions.

Aureobasidium pullulans = details: 24 h
Experimental: (§5) The synthetic peptides were also screened for antifungal activity against Candida albicans (ATCC 10231), Aureobasidium pullulans and Rhodotorula sp. (the last two were obtained from Professor Arne Tronsmo, The Norwegian University of Life Sciences, As, Norway). The antifungal assay was performed as previously described (Sperstad, S. V., et al. (2009) Dev. Comp. Immunol. 33, 583-591). Briefly, fungal spores were dissolved in potato dextrose broth (Difco, Lawrence, Kans., USA) to a concentration of 4×10^5 spores/ml. The spores (50 μl) were inoculated on 96-well Nunclon™ microtiter plates containing the synthetic peptides (50 μl) dissolved in MQ-H2O. […] The negative (growth) control consisted of medium and fungal solution. The peptides were tested for activity in concentrations ranging from 100 to 0.1 μM in two-fold serial dilutions. All tests were performed in triplicates.

[5] = system: Candida albicans (ATCC 10231)
Experimental: as §5

Rhodotorula sp. = details: 24 h
Experimental: as §5

[6] = 24 h at 35° C., complete inhibition by OD 595 nm

Row | Substance | MIC (μM) Cg ([1]; ATCC 13032, 24 h) | MIC (μM) Ec ([2]; ATCC 25922, 24 h) | MIC (μM) Pa ([3]; ATCC 27853, 24 h) | MIC (μM) Sa ([4]; ATCC 9144, 24 h) | Haemolysis (%) 25 μM (human red blood cells) | Haemolysis (%) 200 μM (human red blood cells) | MIC (μM) A. pullulans (Aureobasidium pullulans) | MIC (μM) C. albicans ([5]; ATCC 10231, 24 h) | MIC (μM) Rhodotorula sp. (Rhodotorula sp.) | Haemolysis (%) 200 μM (human red blood cells; listed as full HC) | MIC (μM) Cg [1, 6] | MIC (μM) Ec [2, 6] | MIC (μM) Pa [3, 6] | MIC (μM) Sa [4, 6] | MIC (μM) C. albicans ([5]; no visible growth after 24 h at room temperature)
1 | H-GWWRRTVAKVRN-NH2 [HC(1-12)A8, GWWRRTVAKVRN] | 1.6 µM | 6.3 µM | 6.3 µM | 50 µM | – | – | – | – | – | – | – | – | – | – | –
2 | GWWRRAVAKVRK-NH2 [Peptide T6A, GWWRRAVAKVRK-NH2] | 1.6 µM | – | – | – | 0.9% | 4.1% | 25 µM | 25 µM | 12.5 µM | – | – | – | – | – | –
3 | GWARRTVAKVRK-NH2 [Peptide W3A, GWARRTVAKVRK-NH2] | 0.8 µM | – | – | – | 0.0% | 0.0% | 50 µM | 50 µM | 25 µM | – | – | – | – | – | –
4 | GWWRRWVKKVRK-NH2 [HC(1-12)W6K8K12, GWWRRWVKKVRK-NH2] | 1.6 µM | 6.3 µM | 3.1 µM | 3.1 µM | – | – | 12.5 µM | 25 µM | 6.3 µM | – | – | – | – | – | –
5 | RWWRRWVRRVRR-NH2 [HC(1-12)R1W6R8,9,12-NH2, RWWRRWVRRVRR-NH2] | 0.8 µM | 3.1 µM | 3.1 µM | 3.1 µM | – | – | 25 µM | 12.5 µM | 3.1 µM | – | – | – | – | – | –
6 | GWWRRTVDKVRNAGRKVAGFASKACGALGH [HC, reference compound] | 0.4 µM | 0.8 µM | 1.6 µM | 3.1 µM | 13.5% | 74.6% | 12.5 µM | 100 µM | 12.5 µM | 75% | – | – | – | – | –
7 | WWRRTVAKVRNAGRK-NH2 [HC(2-16)A7, WWRRTVAKVRNAGRK] | 0.4 µM | 6.3 µM | 25 µM | 12.5 µM | – | – | – | – | – | – | – | – | – | – | –
8 | AWWRRTVAKVRK-NH2 [Peptide G1A, AWWRRTVAKVRK-NH2] | 0.8 µM | 12.5 µM | 6.3 µM | – | 0.0% | 1.6% | 50 µM | 25 µM | 12.5 µM | – | – | – | – | – | –
9 | KWWRRWVKKVRK-NH2 [HC(1-12)K1W6K8K12, KWWRRWVKKVRK-NH2] | 0.4 µM | 3.1 µM | 1.6 µM | 6.3 µM | – | – | 25 µM | 6.3 µM | 3.1 µM | – | – | – | – | – | –
10 | GWWARTVAKVRK-NH2 [Peptide R4A, GWWARTVAKVRK-NH2] | 1.6 µM | 6.3 µM | 12.5 µM | 50 µM | 0.0% | 3.6% | 50 µM | 25 µM | 50 µM | – | – | – | – | – | –
11 | GWARRWVAKVRK-NH2 [HC(1-12)A3W6A8K12, GWARRWVAKVRK-NH2] | 0.8 µM | 6.3 µM | 12.5 µM | 50 µM | – | – | 25 µM | 6.3 µM | 6.3 µM | – | – | – | – | – | –
12 | H-GWWRRTVRK-NH2 [HC(1-9)R8, GWWRRTVRK] | 3.1 µM | 50 µM | 25 µM | 100 µM | – | – | – | – | – | – | – | – | – | – | –
13 | GWWRRKVAKVRK-NH2 [HC(1-12)K6A8K12, GWWRRKVAKVRK-NH2] | 1.6 µM | 12.5 µM | 50 µM | 12.5 µM | – | – | 25 µM | 50 µM | 25 µM | – | – | – | – | – | –
14 | GWWRRTVAKVAK-NH2 [Peptide R11A, GWWRRTVAKVAK-NH2] | 1.6 µM | 12.5 µM | 12.5 µM | 100 µM | 0.0% | 0.0% | 50 µM | 25 µM | 12.5 µM | – | – | – | – | – | –
15 | GWWRRTVAKVRA-NH2 [Peptide K12A, GWWRRTVAKVRA-NH2] | 0.8 µM | – | – | 50 µM | 0.0% | 0.0% | 50 µM | 25 µM | 12.5 µM | – | – | – | – | – | –
16 | GWWRRTVAKARK-NH2 [Peptide V10A, GWWRRTVAKARK-NH2] | 1.6 µM | 12.5 µM | 6.3 µM | 100 µM | 0.0% | 1.0% | 50 µM | 25 µM | 12.5 µM | – | – | – | – | – | –
17 | GWWRRTVAKVRNAGRK-NH2 [HC(1-16)A8, GWWRRTVAKVRNAGRK] | 0.8 µM | 3.1 µM | 3.1 µM | 12.5 µM | 0.0% | 5.0% | – | – | – | – | – | – | – | – | –
18 | GWWRRTAAKVRK-NH2 [Peptide V7A, GWWRRTAAKVRK-NH2] | 1.6 µM | 12.5 µM | 12.5 µM | 100 µM | 0.0% | 0.0% | 25 µM | 25 µM | 12.5 µM | – | – | – | – | – | –
19 | GWWRRTVAAVRK-NH2 [Peptide K9A, GWWRRTVAAVRK-NH2] | 1.6 µM | – | – | 100 µM | 0.0% | 5.1% | 25 µM | 25 µM | 12.5 µM | – | – | – | – | – | –
20 | GWWRRWVAKVRK-NH2 [HC(1-12)W6A8K12, GWWRRWVAKVRK-NH2] | – | – | – | – | – | – | 50 µM | – | – | – | 0.8 µM | 1.6 µM | 1.6 µM | 3.1 µM | 12.5 µM
21 | GAWRRTVAKVRK-NH2 [Peptide W2A, GAWRRTVAKVRK-NH2] | 3.1 µM | – | – | 100 µM | 0.0% | 0.0% | 50 µM | 50 µM | 25 µM | – | – | – | – | – | –
